From patent EP0369664B1, “Fish CRF” (THE SALK INSTITUTE FOR BIOLOGICAL STUDIES, priority 1988, dated 1994)
Where two headings read alike, the source gives them in different places. No end group written: not given here.

Assays:
[1] = in mammals; reported; cited from earlier work
[2] = system: secretion of ACTH and β-endorphin; conditions: reported; cited from earlier work
[3] = system: cultured rat pituitary cells; test: secretion of ACTH and β-endorphin by cultured rat pituitary cells; format: cell-based
[4] = system: ACTH and β-END-LI secretion; test: ACTH and β-END-LI secretion in vivo in several rat preparations
[5] = blood pressure in the dog; format: in vivo
[6] = blood pressure in the rat; format: in vivo
teleost fish pituitaries = test: secretion of ACTH by teleost fish pituitaries; format: cell-based
[7] = activity and learning performance after administration into the ventricles; format: in vivo; conditions: rats, administered into the ventricles
ACTH and β-endorphin = ACTH and β-endorphin activities in vitro and in vivo, general statement
[8] = lowering of blood pressure, general statement; format: in vivo; conditions: for an extended time period
[9] = system: pituitary-adrenalcortical axis; test: stimulation of the pituitary-adrenalcortical axis and levels of pro-opiomelanocortin products; conditions: in vivo
[10] = system: secretion of ACTH and β-END-LI; test: secretion of ACTH and β-END-LI, test system not specified
[11] = vasodilatory-hypotensive activity, lowering of systemic blood pressure; format: in vivo; conditions: for vasodilatory-hypotensive activity: called mammalian for Example III only; for systemic blood pressure: in vivo
gastric acid production = conditions: in vivo; cited from earlier work

Q: What does the source list for Sauvagine?
A: blood pressure [1]: lowering; secretion of ACTH [2]: stimulating; secretion of β-endorphin [2]: stimulating

Q: Which “secretion of ACTH” value [3] does the source give for “SEEPPISLDLTFHLLREVLEMARAEQLAQQAHSNRKMMEIF-NH2 [Example I]” here?
A: stimulates

Q: And the “secretion of β-endorphin” value [3]?
A: stimulates

Q: What about the ACTH secretion [4] of the same substance?
A: stimulates

Q: And the β-END-LI secretion [4]?
A: stimulates

Q: And the blood pressure [5]?
A: sustained depression

Q: What about the blood pressure [6] of the same substance?
A: marked fall

Q: What about the “secretion of ACTH” value (teleost fish pituitaries) of the same substance?
A: stimulates

Q: What about the activity [7] of the same substance?
A: increases

Q: What about the learning performance [7] of the same substance?
A: improves

Q: And the ACTH activies (ACTH and β-endorphin)?
A: stimulates

Q: And the β-endorphin activies (ACTH and β-endorphin)?
A: stimulates

Q: What about the blood pressure [8] of the same substance?
A: substantially lowers

Q: What about the “levels of ACTH, β-END, β-lipotropin, other pro-opiomelanocortin gene products and corticosterone” value [9] of the same substance?
A: elevates

Q: And the pituitary-adrenalcortical axis [9]?
A: profoundly stimulates

Q: With “Ac-SEEPPISLDLTFHLLREVLEMARAEQLAQQAHSNRKMMEIF-NH2 [II]” as the substance, how does the “secretion of ACTH” value [10] read?
A: stimulates

Q: And the “secretion of β-END-LI” value [10]?
A: stimulates

Q: And the vasodilatory-hypotensive activity [11]?
A: causes vasodilatory-hypotensive activity

Q: And the systemic blood pressure [11]?
A: lowering

Q: Which blood pressure [1] does the source give for “oCRF: ovine corticotropin releasing factor, characterized in 1981, U.S. Patent No. 4,415,558 (H-SQEPPISLDLTFHLLREVLEMTKADQLAQQAHSNRKLLDIA-NH2; ends and bridges not checked; UniProt P01142 148-188, looked up)” here?
A: lowering

Q: And the “secretion of ACTH” value [2]?
A: stimulating

Q: What about the “secretion of β-endorphin” value [2] of the same substance?
A: stimulating

Q: What about the gastric acid production (gastric acid production) of the same substance?
A: inhibits

Q: Which “secretion of ACTH” value [10] does the source give for “PPISLDLTFHLLREVLEMARAEQLAQQAHSNRKMMEIF-NH2 [III]” here?
A: stimulates

Q: And the vasodilatory-hypotensive activity [11]?
A: significant

Q: And the systemic blood pressure [11]?
A: lowering
